This test concerns Mycobacterium tuberculosis H37Ra. Put plainly: microbe, parasite or virus in culture. The test is classed as cell-based.

In brackets after ≈: the same amount, converted by molar mass.

With `CCCCN1CCN(c2nc(=O)c3cc(C(F)(F)F)cc([N+](=O)[O-])c3s2)CC1=O` [Compound 1d, 2-(4-Butyl-3-oxopiperazin-1-yl)-8-nitro-6-(trifluoromethyl)-4H-benzo[e][1,3]-thiazin-4-one], the MIC was determined as 0.034 µM (≈ 0.0146 µg/mL).

Values taken from PMC9078972 (RSC Advances, 2018).
